Assay results as given in paper PMC8568920, “Serum apolipoprotein A-I potentiates the therapeutic efficacy of lysocin E against Staphylococcus aureus” (Nature Communications, 2021).
Converted amounts (≈) assume the structure as drawn. Like-named read-outs stand apart in the source and are kept apart here. Where a SMILES comes first, the peptide text is derived from it. Bridges are numbered along the chain shown (N, C = ends). [ ]: non-standard residue; d: D form. The star is where a group is joined. Hexanoyl(3R-OH,5-Me) = CC(C)C[C@@H](O)CC(=O)*; dNMeF = CN[C@H](Cc1ccccc1)C(=O)O

How the values were obtained:
MRSA = experiment: microbe, parasite or virus in culture
Description: (§1) The antimicrobial activities of the compounds were measured using the microdilution method. Measurement of the bactericidal activity of lysocin E (0.25 µg ml^−1) and nisin (2 µg ml^−1) with or without ApoA-I was performed according to the National Committee for Clinical Laboratory Standards method. […] For the ∆menA and ∆menB strains, TSB medium was used instead of cation-adjusted-Mueller Hinton broth (CA-MHB) in the microdilution method. Sera and ApoA-I, II were added to the bacterial culture before distributing them into 96-well plates. ApoA-I and ApoA-II antimicrobial activity were evaluated using the RN4220 strain. The protein binding rate of lysocin E against human plasma was determined by a rapid equilibrium dialysis device (Thermo Fisher Scientific, Waltham, MA, USA) according to the manufacturer’s instructions.

in vitro = conditions: human plasma
Description: as §1

Bacillus cereus JCM20037 = system: Bacillus cereus JCM20037
Description: as §1

[1] = system: Bacillus subtilis JCM2499
Description: as §1

[2] = system: S. aureus (MRSA) JE2 (USA300)
Description: as §1

[3] = system: S. aureus (MRSA) MR1 (Clinical isolate)
Description: as §1

[4] = system: S. aureus (MRSA) MR2 (Clinical isolate)
Description: as §1

[5] = system: S. aureus (MRSA) MR4 (Clinical isolate)
Description: as §1

[6] = system: S. aureus (MRSA) MR5 (Clinical isolate)
Description: as §1

[7] = system: S. aureus (MRSA) MR6 (Clinical isolate)
Description: as §1

S. aureus (MRSA) MRSA4 = system: S. aureus (MRSA) MRSA4
Description: as §1

S. aureus Newman = system: S. aureus Newman
Description: as §1

[8] = system: S. aureus Smith ATCC13709
Description: as §1

[9] = system: Staphylococcus haemolyticus JCM2416
Description: as §1

[10] = system: Staphylococcus pseudintermedius JCM17571
Description: as §1

rhApoA-I ∆NM = target: T1, rhApoA-I ∆NM (Homo sapiens, UniProt P02647, DEL170-184); experiment: Bio-layer interferometry, binding to rhApoA-I ∆NM variant; conditions: BLI; biotinylated lysocin E on streptavidin biosensor; 2.5 µM protein
T1 construct: 1 65 146 160 185 243; made in house; host or cells: E. coli BL21(DE3)/pLysS, pET20b (pET-hApo∆NM)
T1 sequence (P02647 with tags, fused parts or gaps DEL170-184): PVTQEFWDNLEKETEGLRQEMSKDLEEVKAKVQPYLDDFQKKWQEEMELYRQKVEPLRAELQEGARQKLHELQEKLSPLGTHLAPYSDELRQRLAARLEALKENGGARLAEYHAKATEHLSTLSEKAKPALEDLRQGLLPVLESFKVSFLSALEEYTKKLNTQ
Description: Bio-layer interferometry (BLI) measurements were performed on a BLItz system (ForteBio, Fremont, CA, USA) maintained at room temperature. Kinetic analyses were performed using BLItz Pro ver. 1.2.1.5 (ForteBio). The biotinylated ligand, diluted to 0.1 mg ml^−1 in BLItz buffer (0.05% [v/v] Tween-20 in PBS), was immobilised on a streptavidin biosensor and the kinetic analysis was performed by running BLItz buffer for 300 s each, in the presence and absence of analyte for association and dissociation, respectively. Biotinylated menaquinone (5) and biotinylated lysocin E derivatives (3 and 4) were synthesised as described in the Supplementary Information (Supplementary Figs. 7–15).

S. aureus RN4220 = conditions: for MIC, Control: no rhApoA-I
Description: as §1

S. aureus ∆menA strain = experiment: MIC by microdilution in TSB; assay type: cell-based, Staphylococcus aureus; conditions: TSB medium; two independent experiments
Description: as §1

S. aureus ∆menB strain = experiment: MIC by microdilution in TSB; assay type: cell-based, Staphylococcus aureus; conditions: TSB medium; two independent experiments
Description: as §1

rhApoA-I = target: T2, rhApoA-I (Homo sapiens, UniProt P02647); experiment: rhApoA-I pull-down assay (antimicrobial bound to rhApoA-I, UPLC-MS); assay type: binding; design: unit not given here
T2 construct: 1 65 146 160 185 243; made in house; host or cells: E. coli BL21(DE3)/pLysS, pET20b (pET-hApoWT)
T2 sequence (P02647 25-267): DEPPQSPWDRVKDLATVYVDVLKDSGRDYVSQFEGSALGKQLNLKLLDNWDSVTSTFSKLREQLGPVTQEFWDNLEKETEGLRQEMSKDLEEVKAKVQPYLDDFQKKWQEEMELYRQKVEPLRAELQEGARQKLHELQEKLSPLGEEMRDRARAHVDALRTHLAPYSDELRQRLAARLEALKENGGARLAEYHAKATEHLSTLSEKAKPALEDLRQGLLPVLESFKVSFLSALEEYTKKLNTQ
Description: Menaquinone 4 (MK-4; 100 µl of 1.25 mM) was mixed with N-dodecyl β-D-maltoside (250 µl of 100 mM) in the presence or absence of purified lipid II or lipids (300 µl of 70 µM). Lipid II fraction was prepared from S. aureus RN4220 treated with moenomycin, followed by park nucleotide removal. The mixture was dried in vacuo and dissolved in 2 ml of water. The micelles were then filtered through a 0.45-µm polyvinylidene difluoride membrane filter and a 200 µl aliquot of the filtered micelles were used to evaluate the binding of the antimicrobials in the presence of rhApoA-I. Briefly, 5 µg of antimicrobials was added to the aliquots and the mixture was incubated for 15 min on ice in the presence of 4 µg rhApoA-I. The mixture was then transferred to His-Tag magnetic beads (Dynabeads, Thermo Fisher). The bound protein was then eluted with 250 mM imidazole and then eluted antimicrobials were quantified using an ACQUITY ultra-performance liquid chromatography (UPLC) H-Class PLUS attached to Xevo G2-XS QTof system (Waters Corporation). After injecting the sample into a 2.1 × 100 mm Acquity UPLC HSS T3 1.8 μm column (Waters Corporation) equilibrated with 0.3 mL min^–1 of 30% acetonitrile and 0.1% formic acid in water, the column was developed with a linear gradient to 60% acetonitrile and 0.1% formic acid in water over 10 min. The eluate was continuously applied to a Waters Xevo G2-XS QTof mass spectrometer and the spectra were obtained using MassLynx 4.1 (Waters Corporation) in electrospray ionisation (ESI)-positive mode that was analysed by UNIFI Scientific Information System ver. 1.9 (Waters Corporation).

CC[C@H](C)[C@@H]1NC(=O)[C@@H](Cc2c[nH]c3ccccc23)NC(=O)[C@@H](CCC(N)=O)NC(=O)[C@H](CCC(=O)O)NC(=O)[C@@H](CCCNC(=N)N)NC(=O)[C@H](CC(C)C)NC(=O)[C@@H](Cc2ccccc2)N(C)C(=O)CNC(=O)[C@H](CO)NC(=O)[C@@H](CCCNC(=N)N)NC(=O)[C@@H](NC(=O)C[C@H](O)CC(C)C)[C@@H](C)OC(=O)[C@H]([C@@H](C)O)NC1=O [Lysocin E, lysocin E] ({Hexanoyl(3R-OH,5-Me)}-T[dR]SG[dNMeF]L[dR]E[dQ][dW]IT; ester 1-C)
Antimicrobial activity (MIC) (MRSA): 4 µg/mL | MIC in 10% bovine serum (MRSA): 0.063 µg/mL (≈ 0.0389 µM) | fraction unbound (in vitro): < 0.01 | MIC of lysocin E, Serum 0% (A) (Bacillus cereus JCM20037): 2 µg/mL | MIC of lysocin E, Serum 10% (B) (Bacillus cereus JCM20037): 0.50 µg/mL | MIC of lysocin E, Serum 0% (A) [1]: 2 µg/mL | MIC of lysocin E, Serum 10% (B) [1]: 0.25 µg/mL | MIC of lysocin E, Serum 0% (A) [2]: 4 µg/mL | MIC of lysocin E, Serum 10% (B) [2]: 0.13 µg/mL | MIC of lysocin E, Serum 0% (A) [3]: 4 µg/mL | MIC of lysocin E, Serum 10% (B) [3]: 0.13 µg/mL | MIC of lysocin E, Serum 0% (A) [4]: 2 µg/mL | MIC of lysocin E, Serum 10% (B) [4]: 0.13 µg/mL | MIC of lysocin E, Serum 0% (A) [5]: 4 µg/mL | MIC of lysocin E, Serum 10% (B) [5]: 0.13 µg/mL | MIC of lysocin E, Serum 0% (A) [6]: 4 µg/mL | MIC of lysocin E, Serum 10% (B) [6]: 0.13 µg/mL | MIC of lysocin E, Serum 0% (A) [7]: 4 µg/mL | MIC of lysocin E, Serum 10% (B) [7]: 0.13 µg/mL | MIC of lysocin E, Serum 0% (A) (S. aureus (MRSA) MRSA4): 4 µg/mL | MIC of lysocin E, Serum 10% (B) (S. aureus (MRSA) MRSA4): 0.25 µg/mL | MIC of lysocin E, Serum 0% (A) (S. aureus Newman): 4 µg/mL | MIC of lysocin E, Serum 10% (B) (S. aureus Newman): 0.13 µg/mL | MIC of lysocin E, Serum 0% (A) [8]: 2 µg/mL | MIC of lysocin E, Serum 10% (B) [8]: 0.063 µg/mL | MIC of lysocin E, Serum 0% (A) [9]: 2 µg/mL | MIC of lysocin E, Serum 10% (B) [9]: 0.0078 µg/mL | MIC of lysocin E, Serum 0% (A) [10]: 4 µg/mL | MIC of lysocin E, Serum 10% (B) [10]: 0.13 µg/mL | Kd (rhApoA-I ∆NM): 5.6 µM

nisin (ITSISLCTPGCKTGALMGCNMKTATCHCSIHVSK)
MIC, Control (S. aureus RN4220; RN4220): 8 µg/mL | MIC +rhApoA-I relative to control (fold) (S. aureus RN4220; RN4220, rhApoA-I 25 µg ml-1): 1/4 | MIC, +rhApoA-I 25µg ml-1 (S. aureus RN4220; RN4220, rhApoA-I 25 µg ml-1): 2 µg/mL | MIC, Control (S. aureus RN4220; RN4220, with lipid II 25 µg ml-1): > 32 µg/mL | MIC, +rhApoA-I 25µg ml-1 (S. aureus RN4220; RN4220, with lipid II 25 µg ml-1, rhApoA-I 25 µg ml-1): > 32 µg/mL | Antimicrobial activity (MIC), WT (S. aureus RN4220; wild-type RN4220, TSB medium, two independent experiments): 16 | Antimicrobial activity (MIC), ∆menA (S. aureus ∆menA strain): 16 | Antimicrobial activity (MIC), ∆menB (S. aureus ∆menB strain): 16 | Nisin binding to rhApoA-I (pull-down) (rhApoA-I; CL, replicate 1): 0.284 | Nisin binding to rhApoA-I (pull-down) (rhApoA-I; CL, replicate 2): 0.1757 | Nisin binding to rhApoA-I (pull-down) (rhApoA-I; CL, replicate 3): 0.257 | Nisin binding to rhApoA-I (pull-down) (rhApoA-I; LTA, replicate 1): 0.1611 | Nisin binding to rhApoA-I (pull-down) (rhApoA-I; LTA, replicate 2): 0.2119 | Nisin binding to rhApoA-I (pull-down) (rhApoA-I; LTA, replicate 3): 0.3298 | Nisin binding to rhApoA-I (pull-down) (rhApoA-I; Lipid II, replicate 1): 1.947 | Nisin binding to rhApoA-I (pull-down) (rhApoA-I; Lipid II, replicate 2): 4.556 | Nisin binding to rhApoA-I (pull-down) (rhApoA-I; Lipid II, replicate 3): 3.824 | Nisin binding to rhApoA-I (pull-down) (rhApoA-I; PG, replicate 1): 0.4181 | Nisin binding to rhApoA-I (pull-down) (rhApoA-I; PG, replicate 2): 0.2568 | Nisin binding to rhApoA-I (pull-down) (rhApoA-I; PG, replicate 3): 0.2266 | Nisin binding to rhApoA-I (pull-down) (rhApoA-I; Vehicle (no lipid added), replicate 1): 0.2456 | Nisin binding to rhApoA-I (pull-down) (rhApoA-I; Vehicle (no lipid added), replicate 2): 0.223 | Nisin binding to rhApoA-I (pull-down) (rhApoA-I; Vehicle (no lipid added), replicate 3): 0.2718
